In patent US10240133B2, “ERK-derived peptides and uses thereof” (Yeda Research and Development Co. Ltd., priority 2013, dated 2019):

Tests used:
[1] = tested on: non-transformed melanocytes (NHEM-Ad); experiment: Cell viability, EPE peptide compared with PLX4032; format: cell-based; conditions: EPE 10 μM, PLX4032 1 μM, 1% FCS
Procedure: (§1) FIGS. 3A-3B illustrate that EPE peptide prevents proliferation of cancer but not normal cells. (A) Effect of the EPE peptide on the proliferation of various cell lines. Sixteen cancer and four “normal” immortalized cell lines were treated with either EPE or scrambled peptides as described above. Viable cells were assayed by Methylene Blue at 48 or 72 hours after cell seeding. The data from at least three independent experiments is presented as percent of the amount of viable cells/initial cell number, where initial cell number was considered as 100. (B) Comparison of the effects of the EPE-peptide and Raf inhibitor PLX4032 on cell viability. NHEM-Ad, LOXIMVI, A2352, Hela MDA-MB-231, and DU-145 cells were treated with EPE peptide, scrambled peptide, (10 μM), PLX4032 (1 μM), DMSO control, or no treatment at 1% FCS. The number of cells was detected as above. The graphs present the kinetic of cell growth at the indicated times. All experiments were repeated 3 times in triplicates.
(§2) All cells, except of MCF-10A, were seeded into 12-well cell plates in 1% FBS medium. MCF-10A cells were seeded in their complete medium diluted 5 fold. DMSO, Scr peptide, EPE peptide, or U0126 (final concentration of 10 μM each) were added to the appropriated wells four hours later. Every day medium was changed to fresh one containing the same agents. The number of viable cells was measured by Methylene Blue assay at 72 h after cell seeding. Shortly, cells were fixed with 4% Formaldehyde for 2 h at 23° C., washed once with 0.1M Borate Buffer pH 8.5 and stained with of 1% Methylene Blue in 0.1M Borate Buffer for 10 min. Color was extracted by adding 0.1 M HCl for 3 h at 23° C., and examined at 595 nm. For time course experiments, viable cells were measured at 0, 24, 48, 72 and 96 h after cell seeding. For dose response experiments we treaded the cells with 0.1, 1, 3, 10, or 30 μM of peptides for 72 h, as described above.

[2] = tested on: N-Ras transformed melanoma cells LOXIMVI; experiment: Cell viability, EPE peptide compared with PLX4032; format: cell-based; conditions: EPE 10 μM, PLX4032 1 μM, 1% FCS
Procedure: as §1, §2

A2352 xenografts = experiment: Tumor disappearance and recurrence in A2352 xenografts, EPE peptide compared with PLX4032; format: in vivo, SCID mice
Procedure: FIGS. 6A-6B illustrate that the EPE peptide prevents the growth of human tumor xenografts. CD-1 nude mice were inoculated with MDA-MB-231, LOXIMVI and HCT-116 cells, and SKID mice were inoculated with A2352 cells. Upon tumors establishment, the mice were treated intravenously with the DMSO as well as EPE or Scr peptides in the indicated doses, 3 times a week. The results are averages of 5 mice in each experimental group. The X, Y, Z dimensions of the tumors were measured with a caliper, and the volume was calculated accordingly. The significance of all experiments was at least P<0.001. (B) The EPE peptide prevents tumor recurrence on melanoma xenograft. SCID mice were inoculated with A2352 cells. Upon establishment of tumors mice were treated intravenously with 15 mg/kg EPE peptide (n=7) or intraperitonealy with 15 mg/kg PLX4032 (n=5), at the indicated dose 3 times a week. Tumor size was recorded at the same time using a caliper. Following 3 weeks of treatment, mice were kept for further evaluation monitoring for any tumor recurrence of the effective treated melanoma xenografts. Experiment was concluded 110 days post inoculation (11 weeks after the last treatment) and the overall state of the animals was evaluated. sac=sacrificed, recur=recurrence, met=metastasis.
Tumor dimensions were measured with a digital sliding caliper.

[3] = tested on: other cell lines examined; experiment: Apoptosis (TUNEL, PARP-1 cleavage); format: cell-based
Procedure: (§3) FIGS. 5A-5D illustrate that the EPE peptide leads to apoptosis of B-Raf mutant cancer cells. (A) The EPE peptide affects the morphology of treated cells. The indicated cells were treated with either the EPE or Scr peptides, DMSO, or taxol for 72 h, and photographed by a light microscope. (B) The EPE peptide induces apoptosis in melanoma cells detected by TUNEL. The indicated cell lines were treated as in A for 24 h. Apoptosis was detected by TUNEL staining. Images were obtained by florescence microscope. (C) Quantification of B. The bar-graph represents percent of apoptotic cells calculated in 10 different fields. (D) The EPE peptide induces apoptosis of melanoma cells detected by PARP cleavage. The indicated cell lines were treated as in (A) for 24 h. Cell extracts were subjected to Western blotting with αPARP Ab.
Cells were seeded on glass cover slips in a 12-wells plate at 25% confluence with medium containing 1% of FCS. Peptides (EPE or Scr), DMSO, or U0126 in a final concentration of 10 μM, were added after 4 h (considered as time “0”). TUNEL staining was performed at 24 h after the treatment according to manufacturer instruction (Roche Applied Science, Nutley, N.J., USA). Briefly, the medium was removed and cells were fixed with 3% of paraformaldehyde (1.5 h, 23° C.). Cells were rinsed twice with PBS and permeabilized with 0.1% Triton X-100 and 0.1% sodium citrate for 2 min on ice. Cells were rinsed twice with PBS and 28 μl of TUNEL reaction mixture (25 μl of TUNEL label, 2.5 μl of TUNEL enzyme and 0.1 mg/ml of DAPI) was added directly on top of the slide, cells were incubated for 16 h in humid box at 37° C. Cover slips were rinsed three times with PBS and mounted on microscope slides. The slides were dried and then subjected to image acquisition by a florescence microscope. For morphology assay, the cells were seeded at approximately 25% confluence in 6 cm plates with medium containing 1% FCS. Peptides (EPE and Scr) or DMSO or U0126 in a final concentration of 10 μM, were added after 4 h (considered to be time 0), 24 h and 48 h. Images were obtained by a light microscope (Olympus BX51) after 72 h.

B-Raf melanoma cells = experiment: Morphology assay (light microscopy); format: cell-based; conditions: 10 μM
Procedure: as §3
Cells were seeded on glass cover slips in a 12-wells plate at 25% confluence with medium containing 1% of FCS. Peptides (EPE or Scr), DMSO, or U0126 in a final concentration of 10 μM, were added after 4 h (considered as time “0”). TUNEL staining was performed at 24 h after the treatment according to manufacturer instruction (Roche Applied Science, Nutley, N.J., USA). Briefly, the medium was removed and cells were fixed with 3% of paraformaldehyde (1.5 h, 23° C.). Cells were rinsed twice with PBS and permeabilized with 0.1% Triton X-100 and 0.1% sodium citrate for 2 min on ice. Cells were rinsed twice with PBS and 28 μl of TUNEL reaction mixture (25 μl of TUNEL label, 2.5 μl of TUNEL enzyme and 0.1 mg/ml of DAPI) was added directly on top of the slide, cells were incubated for 16 h in humid box at 37° C. Cover slips were rinsed three times with PBS and mounted on microscope slides. The slides were dried and then subjected to image acquisition by a florescence microscope. For morphology assay, the cells were seeded at approximately 25% confluence in 6 cm plates with medium containing 1% FCS. Peptides (EPE and Scr) or DMSO or U0126 in a final concentration of 10 μM, were added after 4 h (considered to be time 0), 24 h and 48 h. […]

ERK1/2 = experiment: Nuclear translocation of ERK (fluorescence microscopy, subcellular fractionation); format: cell-based; conditions: HeLa cells
Procedure: FIGS. 1A-1F illustrate that EPE peptide prevents nuclear translocation of ERK1. A2352 (A), MDA-MB-231 (B) HeLa (C), T47D (D), NHEM-AD (E) and HB2 (F) cells were serum-starved, pretreated with the EPE peptides, Scr peptide (10 μM, 2 h) DMSO and then either stimulated with TPA (250 nM, 15 min) or left untreated (NS) as control. The cells were stained with αgERK1/2 Ab and DAPI. Scale-bar—15 μm.
FIGS. 12A-12D illustrate that the EPE peptide inhibits the nuclear translocation of ERK1/2. Serum-starved (0.1% FCS, 16 hr) A2352 (FIG. 12A), HeLa (FIG. 12B), MDA-MB-231 (FIG. 12C), or LOXMVI (FIG. 12D) cells were pretreated with EPE or scrambled peptides (10 μM, 2 hr). Cells were then stimulated with EGF (50 ng/ml) or left untreated, and then harvested. Subcellular fractionation of cytoplasm and nucleus was performed as below, and fractions were subjected to Western blot analysis with the indicated Abs. Subcellular Fractionation was performed as follows: Harvested cells were resuspended in 200 μl of buffer H containing 0.1% Nonidet P-40. The lysates were mixed vigorously and centrifuged immediately to yield supernatants containing the cytosolic fraction. Nuclear proteins were extracted by resuspending the nuclear pellets in 200 μl of extraction buffer, waiting on ice for 5 min, brief sonication (2×5 sec, 40 W, 4° C.), vigorous mixing, and centrifugation. Both cytosolic and nuclear fractions were subjected to Western blotting.
A2185 (A) and A2352 (B) B-Raf melanoma cells were serum-starved (16 hours, 0.1% FBS), and then either pretreated with the EPE peptides (10 μM, 2 hours) or left untreated. Then, the cells were stimulated with TPA ([…], 20 min), or left untreated (NS) DMSO as control. The cells were stained with either anti ERK1 (Santa Cruz, C16) or anti ERK2 (C14, Santa Cruz) Abs and DAPI. (C) Quantification of the number of cell in which ERK1 or ERK2 were mostly (>80%) localized in the nucleus was performed by counting 5 fields containing 100 cells per field.
FIGS. 15A-15B illustrate that the EPE peptide prevents nuclear accumulation/translocation of ERK1/2 in PLX4032-resistant melanoma cells. A2352 that were made resistant to PLX4032 (as described under Material and Methods) and A4132 PLX4032 resistant melanoma cell from patient were serum-starved (16 hours, 0.1%), pretreated with the EPE or scrambled peptide (10 μM, 2 hours) and then either stimulated with TPA (100 nM, 20 min) or left untreated (NT) as control. The cells were stained with αgERK1/2 Ab and DAPI.
Cells were fixed in 3% paraformaldehyde in PBS (20 min, 23° C.), and then permeabilized and blocked with 0.2% Triton X-100 in PBS-BSA (2%) for 20 min at 23° C. The fixed cells were sequentially incubated with appropriated Abs, (diluted in 10 μg/ml BSA/PBS) for 1 h, followed by either Cy-2 or rhodamine-conjugated secondary Abs and DAPI (diluted in BSA/PBS, 1:200) for 1 h. To follow the subcellular localization of the biotin-conjugated peptides, cells were incubated with Avidin-FITC (diluted in BSA/PBS 1:400) and DAPI. Slides were analyzed and photographed by a fluorescent microscope (Nikon, Japan, 600× magnification).

[4] = tested on: PLX-4032 and U0126 resistant A2352 melanoma cells; experiment: Proliferation of inhibitor-resistant melanoma cells; format: cell-based
Procedure: (A) A2352 melanoma cells resistant to either PLX4032 (B-Raf) or U0126 (MEK) inhibitors were treated with DMSO, EPE or Scr peptide (10 μM), U0126 (10 μM), PLX4032 (1 μM), Wortmannin (0.5 μM) or Taxol (25 μg/ml). Presented as percent of viable cells at 72 h/initial cell number. […] Methylene blue assay was performed to quantify viable cells. Experiments were done twice in triplicate. Data presented as fold change.
A2352 cells were supplemented with either PLX4032 (B-Raf inhibitor, 1 μM), or U0126 (MEK inhibitor, 10 μM) for 45 days. […]

CCCS(=O)(=O)Nc1ccc(F)c(C(=O)c2c[nH]c3ncc(-c4ccc(Cl)cc4)cc23)c1F [PLX4032, reference compound]
viability [1]: strong inhibitory effect | viability [2]: not sensitive to PLX4032 | time to complete disappearance of tumors (A2352 xenografts; 15 mg/kg, 3 times a week): 13 to 23 days | tumor disappearance (A2352 xenografts; 15 mg/kg, 3 times a week, 3 weeks, EPE i.v. (n=7), PLX4032 i.p. (n=5), initial ~80 mm3 tumors): complete disappearance in three mice | time to development of resistance (one mouse) (A2352 xenografts; during treatment): ≤ 13 days | mice with tumor recurrence (A2352 xenografts; follow up for up to 11 weeks after last treatment): 3 out of 5

OO [H2O2]
apoptosis / cell death [3]: clear ability to undergo a Taxol or H2O2-induced cell death

N#CC(=C(/N)Sc1ccccc1N)/C(C#N)=C(\N)Sc1ccccc1N [U0126, reference compound]
cell morphology (B-Raf melanoma cells): A similar appearance, albeit a weaker one | TPA-induced nuclear translocation of ERK (ERK1/2): inhibition

CC(=O)O[C@H]1C(=O)[C@@]2(C)[C@H]([C@H](OC(=O)c3ccccc3)[C@]3(O)C[C@H](OC(=O)[C@H](O)[C@@H](NC(=O)c4ccccc4)c4ccccc4)C(C)=C1C3(C)C)[C@]1(OC(C)=O)CO[C@@H]1C[C@@H]2O [Taxol, reference compound]
effect in resistant compared with non-resistant cells [4]: as effective in non-resistant, as resistant cells | apoptosis / cell death [3]: clear ability to undergo a Taxol or H2O2-induced cell death

GQLNHILGILGSPSQED (Synthetic peptide (SPS)) [SPS peptide, NTS-derived peptide of ERK]
TPA-induced nuclear translocation of ERK (ERK1/2): prevented TPA-induced nuclear translocation of ERK
